Source: US9242940B2, “N-substituted bis(fluoroalkyl)-1,4-benzodiazepinone compounds” (BRISTOL-MYERS SQUIBB COMPANY, priority 2012, dated 2016)

Test: Metabolic Stability Half-Life Panel, human liver microsomes
Type: in vitro ADME
Details: pH 7.4, human liver microsomes, 0.5 μM compound, NADPH, 45-minute time course, read-out: HLM (t1/2, min.)
Text: Metabolic Stability Half-Life Panel

| SMILES | half-life at 0.5 μM [h] |
| --- | --- |
| NC(=O)[C@@H](CCC(F)(F)F)[C@@H](CCC(F)(F)F)C(=O)N[C@H]1N=C(c2ccccc2)c2cc3c(cc2N(c2ccccn2)C1=O)OCO3 [Example 3, (2R,3S)-N-((7S)-6-Oxo-9-phenyl-5-(2-pyridinyl)-6,7-dihydro-5H-[1,3]dioxolo[4,5-h][1,4]benzodiazepin-7-yl)-2,3-bis(3,3,3-trifluoropropyl)succinamide] | ≥ 1.12 |
| COc1ccc(C2=N[C@H](NC(=O)[C@H](CCC(F)(F)F)[C@H](CCC(F)(F)F)C(N)=O)C(=O)N(CC3CC3)c3ccccc32)cc1 [Example 6, (2R,3S)-N-((3S)-1-(Cyclopropylmethyl)-5-(4-methoxyphenyl)-2-oxo-2,3-dihydro-1H-1,4-benzodiazepin-3-yl)-2,3-bis(3,3,3-trifluoropropyl)succinamide] | ≥ 1.12 |
| NC(=O)[C@@H](CCC(F)(F)F)[C@@H](CCC(F)(F)F)C(=O)N[C@H]1N=C(c2ccccc2)c2ccccc2N(c2cccnc2)C1=O [Example 5, (2R,3S)-N-((3S)-2-Oxo-5-phenyl-1-(3-pyridinyl)-2,3-dihydro-1H-1,4-benzodiazepin-3-yl)-2,3-bis(3,3,3-trifluoropropyl)succinamide] | ≥ 1.12 |
| COc1ccc2c(c1)C(c1ccccc1)=N[C@H](NC(=O)[C@H](CCC(F)(F)F)[C@H](CCC(F)(F)F)C(N)=O)C(=O)N2CC(F)(F)F [Example 7, (2R,3S)-N-((3S)-7-Methoxy-2-oxo-5-phenyl-1-(2,2,2-trifluoroethyl)-2,3-dihydro-1H-1,4-benzodiazepin-3-yl)-2,3-bis(3,3,3-trifluoropropyl)succinamide] | ≥ 1.12 |
| NC(=O)[C@@H](CCCC(F)(F)F)[C@@H](CCC(F)(F)F)C(=O)N[C@H]1N=C(c2ccccc2)c2ccccc2N(c2cccnc2)C1=O [Example 4, (2R,3S)-N-((3S)-2-Oxo-5-phenyl-1-(3-pyridinyl)-2,3-dihydro-1H-1,4-benzodiazepin-3-yl)-3-(4,4,4-trifluorobutyl)-2-(3,3,3-trifluoropropyl)succinamide] | ≥ 1.12 |
| CC(F)(F)C[C@@H](C(=O)N[C@H]1N=C(c2ccccc2)c2ccccc2N(CC2CC2)C1=O)[C@H](CCC(F)(F)F)C(N)=O [Example 9, (2R,3S)-N-((3S)-1-(Cyclopropylmethyl)-2-oxo-5-phenyl-2,3-dihydro-1H-1,4-benzodiazepin-3-yl)-2-(2,2-difluoropropyl)-3-(3,3,3-trifluoropropyl)succinamide] | ≥ 1.12 |
| NC(=O)[C@@H](CCC(F)(F)F)[C@@H](CCC(F)(F)F)C(=O)N[C@H]1N=C(c2ccccc2)c2ccccc2N(c2ccc(Cl)cn2)C1=O [Example 2, (2R,3S)-N-((3S)-1-(5-Chloro-2-pyridinyl)-2-oxo-5-phenyl-2,3-dihydro-1H-1,4-benzodiazepin-3-yl)-2,3-bis(3,3,3-trifluoropropyl)succinamide] | ≥ 1.12 |
| NC(=O)[C@@H](CCCC(F)(F)F)[C@@H](CCC(F)(F)F)C(=O)N[C@H]1N=C(c2ccccc2)c2ccccc2N(c2ccccn2)C1=O [Example 1, (2R,3S)-N-((3S)-2-Oxo-5-phenyl-1-(2-pyridinyl)-2,3-dihydro-1H-1,4-benzodiazepin-3-yl)-3-(4,4,4-trifluorobutyl)-2-(3,3,3-trifluoropropyl)succinamide] | ≥ 1.12 |
| CC(F)(F)C[C@H](C(N)=O)[C@@H](CCC(F)(F)F)C(=O)N[C@H]1N=C(c2ccccc2)c2ccccc2N(CC2CC2)C1=O [Example 8, (2R,3S)-N-((3S)-1-(Cyclopropylmethyl)-2-oxo-5-phenyl-2,3-dihydro-1H-1,4-benzodiazepin-3-yl)-3-(2,2-difluoropropyl)-2-(3,3,3-trifluoropropyl)succinamide] | ≥ 1.12 |
